Activity calls are given as the source filed them. The calls are words filed in the database; no cut-off is given here.
How the values were obtained:
NIH3T3 = experiment: Cytotoxicity against mouse NIH3T3 cells assessed as reduction in cell viability incubated for 72 hrs by MTT assay; type: cell-based; details: nih3t3, 72 h
LNCaP C4-2 = experiment: Cytotoxicity against human C4-2 cells assessed as reduction in cell viability incubated for 72 hrs by MTT assay; type: functional, cell-based
[1] = molecular target: T1, Androgen receptor (Homo sapiens) (UniProt P10275); experiment: Antagonist activity at androgen receptor in human LNCaP cells assessed as inhibition of DHT-induced AR nuclear translocation at 10 uM after 12 hrs by immunofluorescence assay; type: cell-based; details: filed as antagonist
T1 sequence (whole entry): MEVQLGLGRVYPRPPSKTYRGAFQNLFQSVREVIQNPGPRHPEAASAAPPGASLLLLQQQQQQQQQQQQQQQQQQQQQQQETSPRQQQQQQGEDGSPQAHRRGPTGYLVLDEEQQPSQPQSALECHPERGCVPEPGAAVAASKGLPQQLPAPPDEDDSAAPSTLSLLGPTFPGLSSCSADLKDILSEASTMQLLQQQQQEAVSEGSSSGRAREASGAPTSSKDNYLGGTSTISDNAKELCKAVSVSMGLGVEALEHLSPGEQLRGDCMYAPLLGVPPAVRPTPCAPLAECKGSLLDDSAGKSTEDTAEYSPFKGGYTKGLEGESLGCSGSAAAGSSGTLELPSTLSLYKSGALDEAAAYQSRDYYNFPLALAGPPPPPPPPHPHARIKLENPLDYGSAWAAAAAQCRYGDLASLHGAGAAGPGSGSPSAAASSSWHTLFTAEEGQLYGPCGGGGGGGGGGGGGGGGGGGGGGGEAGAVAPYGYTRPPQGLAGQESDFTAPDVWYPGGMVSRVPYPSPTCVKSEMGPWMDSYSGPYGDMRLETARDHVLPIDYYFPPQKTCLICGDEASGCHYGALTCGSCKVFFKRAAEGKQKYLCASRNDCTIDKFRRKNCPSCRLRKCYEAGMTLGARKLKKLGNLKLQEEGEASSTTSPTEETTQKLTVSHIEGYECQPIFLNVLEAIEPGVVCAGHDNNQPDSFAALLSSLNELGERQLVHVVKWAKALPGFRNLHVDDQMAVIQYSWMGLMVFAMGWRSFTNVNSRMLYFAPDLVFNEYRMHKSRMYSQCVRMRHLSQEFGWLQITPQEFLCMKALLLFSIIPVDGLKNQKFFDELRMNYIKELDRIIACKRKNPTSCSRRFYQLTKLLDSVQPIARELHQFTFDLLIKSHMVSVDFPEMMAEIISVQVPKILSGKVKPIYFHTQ

Glucocorticoid receptor = molecular target: T2, Glucocorticoid receptor (Homo sapiens, UniProt P04150); experiment: Antagonist activity at glucocorticoid receptor in human HeLa cells assessed as reduction in dexamethasone-induced luciferase activity by dual-Glo luciferase assay; type: cell-based
T2 sequence (P04150 whole entry): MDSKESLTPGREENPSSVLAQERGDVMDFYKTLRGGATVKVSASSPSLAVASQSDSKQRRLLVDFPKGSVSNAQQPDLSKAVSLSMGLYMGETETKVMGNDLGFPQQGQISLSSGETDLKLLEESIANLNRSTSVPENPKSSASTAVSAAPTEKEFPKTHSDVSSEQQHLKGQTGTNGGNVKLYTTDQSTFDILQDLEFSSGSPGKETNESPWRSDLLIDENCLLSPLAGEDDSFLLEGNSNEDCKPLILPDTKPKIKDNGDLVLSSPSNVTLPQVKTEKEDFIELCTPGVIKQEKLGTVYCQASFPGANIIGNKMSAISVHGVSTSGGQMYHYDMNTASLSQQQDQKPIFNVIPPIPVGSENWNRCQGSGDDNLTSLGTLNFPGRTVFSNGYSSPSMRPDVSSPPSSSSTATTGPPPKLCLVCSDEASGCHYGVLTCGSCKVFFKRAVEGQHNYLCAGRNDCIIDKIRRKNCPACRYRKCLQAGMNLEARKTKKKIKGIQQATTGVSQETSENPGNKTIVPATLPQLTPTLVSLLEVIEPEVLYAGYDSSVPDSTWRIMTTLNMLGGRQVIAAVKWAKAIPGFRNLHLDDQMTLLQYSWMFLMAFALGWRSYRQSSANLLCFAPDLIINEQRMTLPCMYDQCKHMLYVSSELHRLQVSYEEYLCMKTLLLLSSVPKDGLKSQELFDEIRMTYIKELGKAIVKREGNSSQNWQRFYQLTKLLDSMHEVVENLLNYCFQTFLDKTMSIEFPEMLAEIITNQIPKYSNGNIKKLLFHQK

[2] = molecular target: T3, Progesterone receptor (Homo sapiens) (UniProt P06401); experiment: Antagonist activity at progesterone receptor in human HEK293T cells assessed as reduction in […] luciferase activity by dual-Glo luciferase assay; type: cell-based
T3 sequence (whole entry): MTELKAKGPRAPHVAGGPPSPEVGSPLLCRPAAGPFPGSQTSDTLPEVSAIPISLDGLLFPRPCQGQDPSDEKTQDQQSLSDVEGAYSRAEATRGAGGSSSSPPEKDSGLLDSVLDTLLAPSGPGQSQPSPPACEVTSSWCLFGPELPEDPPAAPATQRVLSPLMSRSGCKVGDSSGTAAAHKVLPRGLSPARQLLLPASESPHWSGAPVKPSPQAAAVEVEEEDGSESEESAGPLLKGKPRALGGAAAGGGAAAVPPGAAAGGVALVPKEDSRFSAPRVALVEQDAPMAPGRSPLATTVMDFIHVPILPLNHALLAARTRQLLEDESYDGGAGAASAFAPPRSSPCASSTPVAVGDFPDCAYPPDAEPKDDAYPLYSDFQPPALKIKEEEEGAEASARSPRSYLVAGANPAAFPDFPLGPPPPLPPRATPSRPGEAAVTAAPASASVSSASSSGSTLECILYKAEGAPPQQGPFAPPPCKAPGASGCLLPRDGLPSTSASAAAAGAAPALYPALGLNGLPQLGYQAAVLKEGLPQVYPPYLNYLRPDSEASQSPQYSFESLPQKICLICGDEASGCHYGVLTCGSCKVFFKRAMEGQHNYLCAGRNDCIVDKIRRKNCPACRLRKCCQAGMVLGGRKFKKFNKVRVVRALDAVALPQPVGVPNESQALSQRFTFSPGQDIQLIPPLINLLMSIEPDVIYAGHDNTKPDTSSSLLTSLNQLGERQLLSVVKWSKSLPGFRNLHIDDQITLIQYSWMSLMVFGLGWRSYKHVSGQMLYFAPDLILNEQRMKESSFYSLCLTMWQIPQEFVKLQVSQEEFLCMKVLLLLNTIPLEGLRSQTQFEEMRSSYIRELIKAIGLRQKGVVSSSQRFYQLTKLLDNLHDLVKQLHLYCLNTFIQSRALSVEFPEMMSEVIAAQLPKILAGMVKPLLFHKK

- Activity [1]: Active
- IC50 (Glucocorticoid receptor): > 10 µM
- Activity [2]: inactive
Structure (SMILES): O=c1cc(C(F)(F)F)c2ccc(OCc3ccc(Br)cc3)cc2o1
- Activity (NIH3T3): Non-Toxic
- Activity (LNCaP C4-2): Active

From ChEMBL document CHEMBL5055679, “Discovery of a Novel Androgen Receptor Antagonist Manifesting Evidence to Disrupt the Dimerization of the Ligand-Binding Domain via Attenuating the Hydrogen-Bonding Network Between the Two Monomers” (J Med Chem, 2021)
